In PubChem BioAssay (NCI) one finds TGI data, which are given here for 7 compounds.

SMILES strings stand for the structures.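 Assay format: 96-well plates, 48-hour exposure. The concentration for full growth arrest is given as TGI.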

Test systems include BT-549 breast; MDA-N; 786-0 renal; SK-MEL-5 melanoma; SNB-19 CNS; SNB-75 CNS; SN12C renal; ACHN renal; HOP-62 NSCLC; NCI-H23 lung; SF-295 CNS; UO-31 renal; MALME-3M melanoma; KM12 colon; M14 melanoma; HCT-116 colon; OVCAR-5 ovarian; RXF 393 renal; SK-OV-3 ovarian; UACC-62 melanoma.
Common to all, as to assay: NCI anticancer screen, dose series, 48 h

On to `O=[N+]([O-])C(=C(Cl)Cl)C(Cl)=C(Cl)Cl`, for which the TGI with BT-549 breast was found to be 0.528 µM; in the assay with MDA-N, 1.24 µM; in the assay on 786-0 renal, 0.648 µM; in the assay on SK-MEL-5 melanoma, 1.83 µM; with SNB-19 CNS, 11.2 µM; in the assay on SNB-75 CNS, 3.35 µM. The TGI was found to be 2.22 µM in the assay on SN12C renal; 2.05 µM in the assay on ACHN renal; 25.3 µM in the assay with HOP-62 NSCLC; 1.96 µM with NCI-H23 lung; 9.54 µM with SF-295 CNS; 2.94 µM with UO-31 renal. The TGI in the assay on MALME-3M melanoma was found to be 0.126 µM; with KM12 colon, 5.51 µM; with M14 melanoma, 0.0871 µM; in the assay on HCT-116 colon, 0.849 µM; in the assay on OVCAR-5 ovarian it was 3.94 µM; in the assay on RXF 393 renal, 0.091 µM. In addition, the TGI with SK-OV-3 ovarian was 9.51 µM; with UACC-62 melanoma it was 1.75 µM.
On to `O=C1OCN(c2ccccc2)C12CCN(Cc1ccccc1)CC2`, for which the TGI in the assay on BT-549 breast was more than 100 µM; in the assay on MDA-N, 62.3 µM; in the assay with 786-0 renal it was 79.2 µM; with SK-MEL-5 melanoma, 33.6 µM; with SNB-19 CNS, more than 100 µM; in the assay on SNB-75 CNS, 59.9 µM. Moreover, the TGI is more than 100 µM with SN12C renal; more than 100 µM in the assay with ACHN renal; more than 100 µM with HOP-62 NSCLC; more than 100 µM in the assay on NCI-H23 lung; 31.1 µM in the assay on SF-295 CNS; more than 100 µM with UO-31 renal. For the same compound, the TGI in the assay with MALME-3M melanoma was 43.8 µM; with KM12 colon, 47.2 µM; in the assay with M14 melanoma, 33.1 µM; in the assay with HCT-116 colon, more than 100 µM; in the assay with OVCAR-5 ovarian, more than 100 µM; with RXF 393 renal, 33.2 µM. For the same compound, the TGI in the assay on SK-OV-3 ovarian was more than 100 µM; with UACC-62 melanoma it was 37.2 µM.
Turning to `C[N+](C)(CCCn1ccnc1[N+](=O)[O-])CCCn1ccnc1[N+](=O)[O-]`, the TGI in the assay on BT-549 breast, in the assay on MDA-N, with 786-0 renal, in the assay with SK-MEL-5 melanoma, in the assay with SNB-75 CNS and with SN12C renal was more than 100 µM in each case. Besides, the TGI in the assay on ACHN renal, in the assay with HOP-62 NSCLC, in the assay on NCI-H23 lung, with SF-295 CNS, in the assay on UO-31 renal and in the assay with MALME-3M melanoma was more than 100 µM in each case. Moreover, the TGI with KM12 colon, in the assay with M14 melanoma, with HCT-116 colon, in the assay with OVCAR-5 ovarian, in the assay with RXF 393 renal and with SK-OV-3 ovarian was more than 100 µM throughout. In the assay on UACC-62 melanoma, the TGI was more than 100 µM.
As to `NC(=O)c1ccc(C(=O)Nc2ccc([As](=O)(O)O)cc2)cc1`, the TGI in the assay with BT-549 breast, with MDA-N, in the assay with 786-0 renal, in the assay on SK-MEL-5 melanoma, in the assay on SNB-19 CNS and in the assay with SNB-75 CNS was more than 100 µM each time. In addition, the TGI in the assay with SN12C renal, with ACHN renal, with HOP-62 NSCLC, with NCI-H23 lung, in the assay on SF-295 CNS and in the assay with UO-31 renal was more than 100 µM throughout. Further, the TGI in the assay on MALME-3M melanoma, in the assay with KM12 colon, with M14 melanoma, in the assay with HCT-116 colon, in the assay with OVCAR-5 ovarian and in the assay with RXF 393 renal was more than 100 µM throughout. For the same compound, the TGI in the assay on SK-OV-3 ovarian and in the assay on UACC-62 melanoma was more than 100 µM throughout.
On to `COc1ccccc1CCN1CCN(CCCc2ccccc2)CC1`, for which the TGI with BT-549 breast is more than 100 µM; in the assay on MDA-N, more than 100 µM; in the assay on 786-0 renal, more than 100 µM; in the assay on SK-MEL-5 melanoma, 45.7 µM; in the assay with SNB-19 CNS it was more than 100 µM; with SNB-75 CNS, more than 100 µM. Further, the TGI with SN12C renal, in the assay with ACHN renal, in the assay with HOP-62 NSCLC, with SF-295 CNS, in the assay on UO-31 renal and in the assay with MALME-3M melanoma was more than 100 µM in each case. The TGI was more than 100 µM in the assay with KM12 colon; 76.4 µM in the assay with M14 melanoma; more than 100 µM in the assay with HCT-116 colon; more than 100 µM in the assay with OVCAR-5 ovarian; more than 100 µM in the assay on RXF 393 renal; more than 100 µM in the assay with SK-OV-3 ovarian. The compound further came in with a TGI in the assay on UACC-62 melanoma of more than 100 µM.
With `Cn1c2ccc([N+](=O)[O-])cc2c(=O)n1Cc1ccccc1F`, the TGI is more than 100 µM in the assay with BT-549 breast; more than 100 µM with MDA-N; more than 100 µM with 786-0 renal; more than 100 µM in the assay with SK-MEL-5 melanoma; more than 100 µM with SNB-19 CNS; 70.2 µM in the assay on SNB-75 CNS. For the same compound, the TGI with SN12C renal, in the assay on ACHN renal, in the assay with HOP-62 NSCLC, with NCI-H23 lung, in the assay with SF-295 CNS and in the assay with UO-31 renal was more than 100 µM throughout. Further, the TGI in the assay on MALME-3M melanoma, in the assay on KM12 colon, in the assay on M14 melanoma, in the assay on HCT-116 colon, in the assay on OVCAR-5 ovarian and in the assay with RXF 393 renal was more than 100 µM each time. The TGI in the assay with SK-OV-3 ovarian and in the assay on UACC-62 melanoma was more than 100 µM throughout.
As to `O=c1ccn([C@@H]2C[C@H]2CO)c(=O)[nH]1`, the TGI in the assay with BT-549 breast, in the assay with MDA-N, with 786-0 renal, in the assay with SK-MEL-5 melanoma, with SNB-19 CNS and with SNB-75 CNS was more than 100 µM throughout. In addition, the TGI in the assay with SN12C renal, in the assay with ACHN renal, with HOP-62 NSCLC, in the assay with NCI-H23 lung, with UO-31 renal and in the assay on MALME-3M melanoma was more than 100 µM in each case. Also, the TGI in the assay on KM12 colon, in the assay on M14 melanoma, in the assay on HCT-116 colon, in the assay with OVCAR-5 ovarian, in the assay with RXF 393 renal and in the assay with UACC-62 melanoma was more than 100 µM throughout.
